Columns and labels:
[1] = target: T1, Gamma-aminobutyric acid receptor subunit rho-2 (Homo sapiens, UniProt P28476); test: Activation of human rho2 GABA-C receptor at 34% of maximal GABA-induced response
[2] = target: T2, Gamma-aminobutyric acid receptor subunit rho-1 (Homo sapiens, UniProt P24046); test: Antagonist activity against rho-1 subunit GABA-C receptor expressed in Xenopus oocytes; assay type: functional, cell-based; conditions: Oocyte
[3] = target: T2, Gamma-aminobutyric acid receptor subunit rho-1; test: Partial agonist activity against human rho1 subunit GABA-C receptor expressed in Xenopus oocytes; assay type: functional, cell-based, Oocyte
[4] = target: T1, Gamma-aminobutyric acid receptor subunit rho-2; test: Partial agonist activity against human rho-2 subunit GABA-C receptor expressed in Xenopus oocytes; assay type: functional, cell-based, Oocyte
[5] = target: GABA-A receptor; anion channel; test: Affinity against recombinant Gamma-aminobutyric acid A (GABA-A) receptor; assay type: protein-complex assay
[6] = target: GABA-A receptor; anion channel; test: Competitive antagonist activity against Gamma-aminobutyric acid A (GABA-A) receptor; assay type: functional
[7] = target: T2, Gamma-aminobutyric acid receptor subunit rho-1; test: Partial agonist activity against rho-1 subunit GABA-C receptor expressed in Xenopus oocytes; assay type: functional, cell-based, Oocyte
[8] = target: GABA-A receptor; anion channel; test: Potent antagonist activity against Gamma-aminobutyric acid A (GABA-A) receptor from rat cortex RNA expressed in Xenopus oocytes; assay type: functional, cell-based; conditions: oocyte
[9] = target: T1, Gamma-aminobutyric acid receptor subunit rho-2; test: Full agonist activity against human rho-2 subunit GABA-C receptor expressed in Xenopus oocytes; assay type: functional, cell-based, Oocyte
[10] = target: T2, Gamma-aminobutyric acid receptor subunit rho-1; test: Full agonist activity against human rho-1 subunit GABA-C receptor expressed in Xenopus oocytes; assay type: functional, cell-based, Oocyte
[11] = target: T2, Gamma-aminobutyric acid receptor subunit rho-1; test: Partial agonist activity against rho-1 subunit GABA-C receptor expressed in Xenopus oocytes with low efficacy; assay type: functional, cell-based, Oocyte
[12] = target: T1, Gamma-aminobutyric acid receptor subunit rho-2; test: Partial agonist activity with low efficacy against rho-2 subunit GABA-C receptor expressed in Xenopus oocytes; assay type: functional, cell-based, Oocyte
[13] = target: T2, Gamma-aminobutyric acid receptor subunit rho-1; test: Partial agonist activity against rho-1 subunit GABA-C receptor expressed in Xenopus oocytes, low intrinsic activity (Im 3%); assay type: functional, cell-based, Oocyte
[14] = target: GABA-C receptor (Homo sapiens) (UniProt P28476+A8MPY1+P24046); test: Antagonist activity against rho subunit Gamma-aminobutyric acid C (GABA-C) receptor expressed in Xenopus oocytes; assay type: functional, cell-based; conditions: Oocyte
Sequence of GABA-C receptor (Homo sapiens) (A8MPY1 whole entry, looked up): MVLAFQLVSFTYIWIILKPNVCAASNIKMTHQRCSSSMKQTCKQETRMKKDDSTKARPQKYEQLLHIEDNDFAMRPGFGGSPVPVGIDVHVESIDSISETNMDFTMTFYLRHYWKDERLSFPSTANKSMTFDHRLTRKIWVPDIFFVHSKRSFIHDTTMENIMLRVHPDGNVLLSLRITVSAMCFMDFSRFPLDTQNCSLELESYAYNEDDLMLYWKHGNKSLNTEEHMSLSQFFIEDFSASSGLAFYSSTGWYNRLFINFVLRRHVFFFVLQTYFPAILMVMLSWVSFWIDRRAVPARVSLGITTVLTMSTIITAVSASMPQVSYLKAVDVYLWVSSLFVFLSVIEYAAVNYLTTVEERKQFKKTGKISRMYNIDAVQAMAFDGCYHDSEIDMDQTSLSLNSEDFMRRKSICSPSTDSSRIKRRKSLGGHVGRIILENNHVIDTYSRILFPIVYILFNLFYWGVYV
Sequence of GABA-C receptor (Homo sapiens) (P24046 whole entry, looked up): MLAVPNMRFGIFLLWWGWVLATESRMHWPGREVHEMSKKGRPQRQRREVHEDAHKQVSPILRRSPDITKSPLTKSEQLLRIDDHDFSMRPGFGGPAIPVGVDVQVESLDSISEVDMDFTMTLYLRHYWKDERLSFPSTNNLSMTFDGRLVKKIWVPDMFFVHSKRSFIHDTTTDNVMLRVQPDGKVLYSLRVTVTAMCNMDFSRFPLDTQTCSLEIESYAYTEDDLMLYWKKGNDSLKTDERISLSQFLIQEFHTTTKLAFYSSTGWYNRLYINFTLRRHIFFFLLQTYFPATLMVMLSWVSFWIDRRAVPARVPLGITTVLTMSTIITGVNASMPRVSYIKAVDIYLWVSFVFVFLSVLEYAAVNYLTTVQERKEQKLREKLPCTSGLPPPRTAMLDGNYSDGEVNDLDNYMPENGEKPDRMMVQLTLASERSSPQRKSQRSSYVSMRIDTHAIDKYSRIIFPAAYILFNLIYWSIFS
Sequence of GABA-C receptor (Homo sapiens) (P28476 whole entry, looked up): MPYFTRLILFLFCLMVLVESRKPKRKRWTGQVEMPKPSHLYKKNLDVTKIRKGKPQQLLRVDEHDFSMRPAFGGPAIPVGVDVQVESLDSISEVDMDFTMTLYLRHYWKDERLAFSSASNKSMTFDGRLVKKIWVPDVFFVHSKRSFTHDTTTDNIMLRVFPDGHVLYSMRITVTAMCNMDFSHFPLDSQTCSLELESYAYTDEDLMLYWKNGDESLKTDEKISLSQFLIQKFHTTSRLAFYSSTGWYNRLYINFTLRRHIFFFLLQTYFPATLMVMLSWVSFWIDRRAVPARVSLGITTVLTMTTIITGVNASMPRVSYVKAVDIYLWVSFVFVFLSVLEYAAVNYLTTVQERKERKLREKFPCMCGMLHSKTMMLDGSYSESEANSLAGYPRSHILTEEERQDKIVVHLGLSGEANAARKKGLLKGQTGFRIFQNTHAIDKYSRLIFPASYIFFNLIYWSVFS

[15] = target: T1, Gamma-aminobutyric acid receptor subunit rho-2; test: Partial agonist activity against rho-2 subunit GABA-C receptor expressed in Xenopus oocytes, higher intrinsic activity (Im 38%); assay type: functional, cell-based, Oocyte
[16] = target: T2, Gamma-aminobutyric acid receptor subunit rho-1; test: Partial agonist activity against human rho-1 subunit GABA-C receptor expressed in Xenopus oocytes; assay type: functional, cell-based, Oocyte
[17] = target: GABA-A receptor; anion channel; test: Inhibitory activity against Gamma-aminobutyric acid A (GABA-A) receptor from rat cultured cortical neuron RNA expressed in Xenopus oocytes; assay type: functional, cell-based; conditions: oocyte
[18] = target: GABA-A receptor; anion channel; test: Non-competitive antagonist activity against Gamma-aminobutyric acid A (GABA-A) receptor; assay type: functional, Rattus norvegicus
[19] = target: GABA-A receptor; anion channel; test: Antagonist activity against Gamma-aminobutyric acid A (GABA-A) receptor; assay type: functional, Rattus norvegicus
[20] = target: GABA-C receptor (Homo sapiens, UniProt A8MPY1+P24046+P28476); test: Agonist activity against Gamma-aminobutyric acid type C (GABA-C) receptor derived from bovine retinal RNA expressed in Xenopus oocytes; assay type: functional, cell-based, Bos taurus, Oocyte
Sequence of GABA-C receptor (P28476 whole entry): as the sequence (P28476 whole entry, looked up) above
Sequence of GABA-C receptor (A8MPY1 whole entry): as the sequence (A8MPY1 whole entry, looked up) above
Sequence of GABA-C receptor (P24046 whole entry): as the sequence (P24046 whole entry, looked up) above

[21] = target: T1, Gamma-aminobutyric acid receptor subunit rho-2; test: Partial agonist activity against homomeric rho-2 subunit GABA-C receptor expressed in Xenopus oocytes; assay type: functional, cell-based, Oocyte

T1 sequence (P28476 whole entry): as the sequence (P28476 whole entry, looked up) above
T2 sequence (P24046 whole entry): as the sequence (P24046 whole entry, looked up) above

C/C(=C\CN)C(=O)O gave an EC50 [1] of 101 µM and a Kb [2] of 45 µM.

Molecule NC/C=C\C(=O)O has an EC50 [3] of 74 µM and an EC50 [4] of 70 µM.

In the case of O=c1cc(-c2cccc([N+](=O)[O-])c2)oc2cccc(Br)c12, the Ki [5] is reported as 0.03 µM.

c1ccc2c(NCCCCCCCNc3c4c(nc5ccccc35)CCCC4)c3c(nc2c1)CCCC3 was tested, and the IC50 [6] was 6 µM.

For NC/C=C(\F)C(=O)O, the EC50 [7] was 2.43 µM.

In the case of O=S(=O)(O)C1CCNCC1, the Kd [8] is reported as 104 µM.

Molecule NC[C@@H]1C[C@@H]1C(=O)O (relative stereo) has an EC50 [9] of 34.5 µM, an EC50 [10] of 68 µM and an EC50 [11] of 20 µM. For the same molecule, the EC50 [12] was 17.5 µM.

COC(=O)[C@H]1[C@@H](OC(=O)c2ccccc2)C[C@@H]2CC[C@H]1N2C [COCAINE] gave an IC50 [5] of 127 µM.

Molecule NCCCS(=O)O [HOMOHYPOTAURINE] has an EC50 [3] of 4.6 µM.

Work on O=C(O)Cc1c[nH]cn1 [IMIDAZOLE ACETIC ACID] yielded an EC50 [13] of 16 µM, a Kb [14] of 1.5 µM and an EC50 [15] of 3 µM.

In the case of NCc1cc(=O)[nH]o1 [MUSCIMOL], the Kd [4] is reported as 1.4 µM and the Kd [16] is reported as 2.3 µM.

For CCCCCCCC/C=C\CCCCCCCC(N)=O [OLEAMIDE], the EC50 [17] was 15 µM.

For Cc1nccn1CC1CCc2c(c3ccccc3n2C)C1=O (centres undefined) [ONDANSETRON], the IC50 [18] was 10 µM.

Cc1ccc2c(c1)c1c3n2CCNC3CCC1 (centres undefined) [PIRLINDOLE] showed an EC50 [19] of 12 µM.

NC/C=C/C(=O)O [t-4-AMINOCROTONIC ACID (TACA)] was tested, and the Kd [20] was 0.6 µM and the EC50 [21] was 0.4 µM.

Reference: ChEMBL document CHEMBL1133003, “GABA-Activated ligand gated ion channels: medicinal chemistry and molecular biology” (J Med Chem, 2000)
